For 36 compounds, IC50 results are on record in patent US20060069110A1, “Substituted heterocyclic compounds and methods of use” (priority 2004, published 2006).

This experiment relates to THP1 cells (LPS induced TNF release). Nature of the experiment: Lipopolysaccharide-Activated THP1 Cell TNF Production Assay. The class given is cell-based. As to conditions: Homo sapiens, read-out: IC50 values in the THP1 cell assay (LPS induced TNF release). The procedure, abridged: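 THP1 cells at 1E6/mL were treated with 3-fold serial compound dilutions and LPS (1 μg/mL stock) for 3 h at 37 °C. Secreted TNF-α was quantified by electrochemiluminescent sandwich immunoassay. Percent of DMSO control versus concentration was fitted to a 4-parameter equation.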

The mark [1] stands for this setting: THP-1, THP1 cells, bacterial LPS, secreted TNF-α after 3 h at 37° C.

pIC50: −log10 of the molar value. Where two headings read alike, the source gives them in different places.

By pIC50 is commonly meant the negative decadic logarithm of the IC50, by convention in mol/L. `CN(c1ccnc(NCC(c2cccnc2)N2CCOCC2)n1)c1ccnc(-c2ccccc2)n1` (stereo not drawn) [Example 108, N^4-Methyl-N^2-(2-morpholino-2-(pyridin-3-yl)ethyl)-N^4-(2-phenylpyrimidin-4-yl)pyrimidine-2,4-diamine]: the negative logarithm of the IC50 (pIC50) under setting [1] is at least 4.70.
Consider `CN(c1ccnc(NCC(c2cccnc2)N(C)C)n1)c1ccnc(-c2ccccc2)n1` (stereo not drawn) [Example 109, N^2-(2-(Dimethylamino)-2-(pyridin-3-yl)ethyl)-N^4-methyl-N^4-(2-phenylpyrimidin-4-yl)pyrimidine-2,4-diamine], for which the pIC50 under setting [1] is at least 4.70.
Same read-out and setting: as for `CN(c1ccnc(NC[C@H](O)c2ccccc2)n1)c1ccnc(-c2ccccc2)n1` [Example 110, (R)-2-(4-(Methyl(2-phenylpyrimidin-4-yl)amino)pyrimidin-2-ylamino)-1-phenyl-ethanol], the figure is at least 4.70; as for `CN(c1ccnc(NC[C@@H](O)c2ccccc2)n1)c1ccnc(-c2ccccc2)n1` [Example 111, (S)-2-(4-(Methyl(2-phenylpyrimidin-4-yl)amino)pyrimidin-2-ylamino)-1-phenyl-ethanol], at least 4.70.
Same read-out and setting: for `CN(c1ccnc(NC[C@H](N)c2ccccc2)n1)c1ccnc(-c2ccccc2)n1` [Example 112] the value was at least 4.70; for `CN(c1ccnc(NCC(O)c2ccccn2)n1)c1ccnc(-c2ccccc2)n1` (stereo not drawn) [Example 113], at least 4.70; for `CN(c1ccnc(NCCc2ccc3c(n2)NCCC3)n1)c1ccnc(-c2ccccc2)n1` [Example 114, N^4-Methyl-N^4-(2-phenylpyrimidin-4-yl)-N^2-(2-(5,6,7,8-tetrahydro-1,8-naphthyridin-2-yl)ethyl)pyrimidine-2,4-diamine], at least 4.70.
Same read-out and setting: for `CC(=O)N1CCC(CNc2nccc(N(C)c3ccnc(-c4ccccc4)n3)n2)CC1` [Example 115, 1-(4-((4-(Methyl(2-phenylpyrimidin-4-yl)amino)pyrimidin-2-ylamino)methyl)-piperidin-1-yl)ethanone] the value was at least 4.70; for `C[C@@H](Cc1cccc(-n2ccnc2)c1)Nc1nccc(N(C)c2ccnc(-c3ccccc3)n2)n1` [Example 116, N^2-((S)-1-(3-(1 H-Imidazol-1-yl)phenyl)propan-2-yl)-N^4-methyl-N^4-(2-phenyl-pyrimidin-4-yl)pyrimidine-2,4-diamine], at least 4.70.
Turning to `Cc1nccn1-c1cccc(C[C@H](C)Nc2nccc(N(C)c3ccnc(-c4ccccc4)n3)n2)c1` [Example 117, N^4-Methyl-N^2-((S)-1-(3-(2-methyl-1H-imidazol-1-yl)phenyl)propan-2-yl)-N^4-(2-phenylpyrimidin-4-yl)pyrimidine-2,4-diamine], under “THP-1, 3 h”, the pIC50 was at least 4.70.
With `CN(c1ccnc(NCCc2cccc(-c3ccccn3)c2)n1)c1ccnc(-c2ccccc2)n1` [Example 118, N^2-(3-(Pyridin-2-yl)phenethyl)-N^4-methyl-N^4-(2-phenylpyrimidin-4-yl)pyrimidine-2,4-diamine], the negative-log IC50 (pIC50) under setting [1] is at least 4.70.
On the same count and under the same terms, for `CC(Cc1cccc(CO)c1)Nc1nccc(N(C)c2cc(N)nc(-c3ccccc3)n2)n1` (stereo not drawn) [Example 119, (3-(2-(4-((6-Amino-2-phenylpyrimidin-4-yl)(methyl)amino)pyrimidin-2-ylamino) -propyl)phenyl)methanol] the value was at least 4.70; for `CN(c1ccnc(NCCc2ccccn2)n1)c1cc(O)nc(-c2ccccc2)n1` [Example 120, 6-(Methyl(2-(2-(pyridin-2-yl)ethylamino)pyrimidin-4-yl)amino)-2-phenylpyrimidin-4-ol], at least 4.70; for `COc1nc(-c2ccccc2)nc(N(C)c2ccnc(N[C@@H](C)Cc3cccc(CN)c3)n2)n1` [Example 121, (S)-N^2-(1-(3-(Aminomethyl)phenyl)propan-2-yl)-N^4-(4-methoxy-6-phenyl-1,3,5-triazin-2-yl)-N^4-methylpyrimidine-2,4-diamine], at least 4.70.
The same measure, in the same setting: as for `C[C@@H](Cc1cccc(CN)c1)Nc1nccc(N(C)c2cncc(-c3ccccc3)n2)n1` [Example 122, (S)-N^2-(1-(3-(Aminomethyl)phenyl)propan-2-yl)-N^4-methyl-N^4-(6-phenylpyrazin-2-yl)pyrimidine-2,4-diamine], the figure is at least 4.70.
The same measure, in the same setting: as for `CN(c1cncc(-c2ccccc2)n1)c1ccnc(NCCc2ccccc2Cl)n1` [Example 123, N^2-(2-Chlorophenethyl)-N^4-methyl-N^4-(6-phenylpyrazin-2-yl)pyrimidine-2,4-diamine], the figure is at least 4.70; as for `CN(c1cncc(-c2ccccc2)n1)c1ccnc(N[C@H]2CC[C@H](N)CC2)n1` [Example 124, N^2-((1r, 4r)-4-Aminocyclohexyl)-N^4-methyl-N^4-(6-phenylpyrazine-2-yl)pyrimidine-2,4-diamine], at least 4.70.
Turning to `COc1nc(-c2ccccc2)nc(N(C)c2ccnc(N[C@@H](C)Cc3cccc(CNC(=O)[C@H](C)N)c3)n2)n1` [Example 125, (S)-N-((S)-3-((S)-2-(4-((4-Methoxy-6-phenyl-1,3,5-triazin-2-yl)(methyl)amino)-pyrimidin-2-ylamino)propyl)benzyl)-2-aminopropanamide], the pIC50 under setting [1] is at least 4.70.
For `COc1nc(-c2ccccc2)nc(N(C)c2ccnc(N[C@@H](C)Cc3cccc([C@@H](C)N)c3)n2)n1` [Example 126, N^2-((S)-1-(3-((R)-1-Aminoethyl)phenyl)propan-2-yl)-N^4-(4-methoxy-6-phenyl-1,3,5-triazin-2-yl)-N^4-methylpyrimidine-2,4-diamine], the pIC50 under setting [1] was at least 4.70.
The same measure, in the same setting: for `CN(c1cccc(-c2ccc(C(F)(F)F)cc2)n1)c1ccnc(NCCc2ccccc2)n1` [Example 128, N^4-Methyl-N^2-phenethyl-N^4-(6-(4-(trifluoromethyl)phenyl)pyridin-2-yl)-pyrimidine-2,4-diamine] the value was at least 4.70; for `CN(c1cccc(-c2cccc(C(F)(F)F)c2)n1)c1ccnc(NCCc2ccccc2)n1` [Example 129, N^4-Methyl-N^2-phenethyl-N^4-(6-(3-(trifluoromethyl)phenyl)pyridin-2-yl)-pyrimidine-2,4-diamine], at least 4.70; for `CN(c1cccc(-c2ccccc2C(F)(F)F)n1)c1ccnc(NCCc2ccccc2)n1` [Example 130, N^4-Methyl-N^2-phenethyl-N^4-(6-(2-(trifluoromethyl)phenyl)pyridin-2-yl)-pyrimidine-2,4-diamine], at least 4.70.
Same read-out and setting: for `CN(c1cccc(-c2ccc(Cl)cc2)n1)c1ccnc(NCCc2ccccc2)n1` [Example 134, N^4-(6-(4-Chlorophenyl)pyridin-2-yl)-N^4-methyl-N^2-phenethylpyrimidine-2,4-diamine] the value was at least 4.70; for `CN(c1cccc(-c2cccc(Cl)c2)n1)c1ccnc(NCCc2ccccc2)n1` [Example 135, N^4-(6-(3-chlorophenyl)pyridin-2-yl)-N^4-methyl-N^2-phenethylpyrimidine-2,4-diamine], at least 4.70; for `CN(c1cccc(-c2ccccc2Cl)n1)c1ccnc(NCCc2ccccc2)n1` [Example 136, N^4-(6-(2-Chlorophenyl)pyridin-2-yl)-N^4-methyl-N^2-phenethylpyrimidine-2,4-diamine], at least 4.70.
Still for that read-out and setting: as for `Cc1ccc(-c2cccc(N(C)c3ccnc(NCCc4ccccc4)n3)n2)cc1` [Example 137, N^4-Methyl-N^2-phenethyl-N^4-(6-p-tolylpyridin-2-yl)-pyrimidine-2,4-diamine], the figure is at least 4.70.
Consider `Cc1cccc(-c2cccc(N(C)c3ccnc(NCCc4ccccc4)n3)n2)c1` [Example 138, N^4-Methyl-N^2-phenethyl-N^4-(6-m-tolylpyridin-2-yl)-pyrimidine-2,4-diamine], for which, under setting [1], the pIC50 was at least 4.70.
`Cc1ccccc1-c1cccc(N(C)c2ccnc(NCCc3ccccc3)n2)n1` [Example 139, N^4-Methyl-N^2-phenethyl-N^4-(6-o-tolylpyridin-2-yl)-pyrimidine-2,4-diamine]: the pIC50 under setting [1] was at least 4.70.
In the case of `COc1ccc(-c2cccc(N(C)c3ccnc(NCCc4ccccc4)n3)n2)cc1` [Example 140, N^4-(6-(4-Methoxyphenyl)pyridin-2-yl)-N^4-methyl-N^2-phenethylpyrimidine-2,4-diamine], the pIC50 under setting [1] is at least 4.70.
On the same count and under the same terms, for `COc1cccc(-c2cccc(N(C)c3ccnc(NCCc4ccccc4)n3)n2)c1` [Example 141, N^4-(6-(3-Methoxyphenyl)pyridin-2-yl)-N^4-methyl-N^2-phenethylpyrimidine-2,4-diamine] the value was at least 4.70.
Still for that read-out and setting: for `COc1ccccc1-c1cccc(N(C)c2ccnc(NCCc3ccccc3)n2)n1` [Example 142, N^4-(6-(2-Methoxyphenyl)pyridin-2-yl)-N^4-methyl-N^2-phenethylpyrimidine-2,4-diamine] the value was at least 4.70.
Still for that read-out and setting: as for `CN(c1cccc(-c2cc(F)cc(F)c2)n1)c1ccnc(NCCc2ccccc2)n1` [Example 143, N^4-(6-(3,5-Difluorophenyl)pyridin-2-yl)-N^4-methyl-N^2-phenethylpyrimidine-2,4-diamine], the figure is at least 4.70; as for `CN(c1cccc(-c2ccc(F)c(F)c2)n1)c1ccnc(NCCc2ccccc2)n1` [Example 144, N^4-(6-(3,4-Difluorophenyl)pyridin-2-yl)-N^4-methyl-N^2-phenethylpyrimidine-2,4-diamine], at least 4.70.
For `CN(c1cccc(-c2cccc(F)c2F)n1)c1ccnc(NCCc2ccccc2)n1` [Example 145, N^4-(6-(2,3-Difluorophenyl)pyridin-2-yl)-N^4-methyl-N^2-phenethylpyrimidine-2,4-diamine], under setting [1], the pIC50 is at least 4.70.
Still for that read-out and setting: as for `CN(c1cccc(-c2ccoc2)n1)c1ccnc(NCCc2ccccc2)n1` [Example 146, N^4-(6-(Furan-3-yl)pyridin-2-yl)-N^4-methyl-N^2-phenethylpyrimidine-2,4-diamine], the figure is at least 4.70; as for `CN(c1cccc(-c2ccsc2)n1)c1ccnc(NCCc2ccccc2)n1` [Example 147], at least 4.70.
